Assays:
[1] = system: pancreatic cancer cell AsPC-1; assay: Suppressing proliferation of pancreatic cancer cell AsPC-1 in vitro (MTT, number of living cells); assay type: cell-based; details: Homo sapiens, ASPC1, 72 h, AsPC-1, RPMI 1640 medium, incubated 3 days with test compound
Method: (§1) A cell suspension of pancreatic cancer cell AsPC-1 (20000/ml) in RPMI 1640 medium (Flow Laboratories) supplemented with 10% of inactivated fetal calf serum, 1 mM of sodium pyruvate and 25 mM of HEPES [2-{4-(2-hydroxyethyl)-1-piperazinyl}ethanesulfonic acid] was added to 96-well micro-culture plates (50ul/well). The culture plates were incubated at 37°C in a 5% CO₂ incubator. On the following day, the solution of each test compound dissolved in dimethylformamide and diluted (3-fold steps) was added (50 ul/well), which was incubated for further 3 days. The culture broth containing the test compounds was eliminated, and the cells were washed, to which was added a solution of MTT pigment, and the number of living cells was calculated [Tada et al. J. Immunol. Methods, 93 p.157 (1986)]. The number of cells in the control group containing no test compound was assumed to be 100%, and the respective ratios of cell numbers in groups containing the respective test compounds were calculated to thereby determine the concentrations (IC₅₀ value) of the respective test compounds necessary to suppress the number of living cells to 50% of that of the control group.

[2] = system: pancreatic cancer cell strain PC-3; assay: Suppressing proliferation of PC-3 cells in vitro (MTT, number of living cells); assay type: cell-based; details: 96 h, PC-3, F-12K medium, incubated 4 days with test compound
Method: as §1
For the test of pancreatic cancer cell strain PC-3, the same method in the case of AcPC-1 was employed excepting the use of F-12K medium containing 10% inactivated fetal calf serum (Flow Laboratories) and change of the incubation period after adding the test compounds to 4 days, to thereby determine the IC₅₀ value (nm).

[3] = system: human pancreatic carcinoma cells AsPC-1; assay: Suppressing proliferation of pancreatic carcinoma in vivo (AsPC-1 transplanted subcutaneously into nude mice, tumor volume); parameters: species or system Balb/c nude mice; details: once for two days during 14 days, tumor volume of treated group to control group
Method: The human pancreatic carcinoma cells AsPC-1 (3x10⁶cells) were transplanted subcutaneously into Balb/c nude mice (7 week old) at the flank. On 35th day after the transplantation, the tumor size was measured. Five mice (per group) with almost the same tumor size were employed for the experiment. These groups were respectively administered intraperitoneally with No. 1, 2 and 19 of the compounds of this invention dissolved in corn oil, once for two days during 14 days. On the day following the completion of administration, the tumor size was measured, and the tumor volume was calculated by the formula: Tumor volume = major axis x minor axis x minor axis x (1/2) [formula] . The ratio of the tumor volume in the treated group to that in a control group to which corn oil alone was administered was calculated as a proliferation ratio.

[4] = Dosage 16.7 mg/kg intraperitoneally in corn oil

IC50 [1]	IC50 [2]	Structure (SMILES)	Proliferation ratio (%) ([3]; Dosage 6.7 mg/kg intraperitoneally in corn oil)	Proliferation ratio (%) [3, 4]
28 nM	< 1.52 nM	CC(C)(C)n1ncc(SCc2ccc(-c3ccnc(N)c3)cc2)c(Cl)c1=O [Compound 92, 5-[4-[4-(2-amino)pyridyl]benzylthio]-2-t-butyl-4-chloro-3(2H)-pyridazinone]		
< 1.52 nM	4 nM	CC(C)(C)n1ncc(SCc2ccc(-c3ccccn3)cc2)c(Cl)c1=O [Compound 39, 2-t-butyl-4-chloro-5-{4-(2-pyridyl)benzylthio}-3(2H)-pyridazinone]		
440 nM	120 nM	CC(C)(C)n1ncc(SCc2ccccc2)c(Cl)c1=O [Compound 2, 2-t-butyl-4-chloro-5-benzylthio-3 (2H)pyridazinone]		48%
< 1.52 nM	< 1.52 nM	CC(C)(C)n1ncc(SCc2ccc(C(=O)c3ccc(Cl)cc3)cc2)c(Cl)c1=O [Compound 72, 2-t-butyl-4-chloro-5-[4-(4-chlorobenzoyl)benzylthio]-3(2H)-pyridazinone]		
180 nM	< 1.52 nM	CC(C)(C)c1ccc(COc2cnn(C(C)(C)C)c(=O)c2Cl)cc1 [Compound 19, 2-t-butyl-4-chloro-5-(4-t-butyl)benzyloxy-3(2H)pyridazinone]		29%
< 1.52 nM	< 1.52 nM	CC(C)(C)n1ncc(OCc2ccc(-c3ccccc3)cc2)c(Cl)c1=O [Compound 18, 2-t-butyl-4-chloro-5-(4-phenyl)benzyloxy-3(2H)pyridazinone]		
440 nM	5 nM	CC(C)(C)n1ncc(OCc2ccc3ccccc3c2)c(Cl)c1=O [Compound 20, 2-t-butyl-4-chloro-5-(2-naphthyl)methyloxy-3(2H)pyridazinone]		
85 nM	< 1.52 nM	Cc1c(OCc2ccc(-c3ccccn3)cc2)cnn(C(C)(C)C)c1=O [Compound 104, 2-t-butyl-4-methyl-5-[4-(2-pyridyl)]benzyloxy-3(2H)-pyridazinone]		

Structure (SMILES)	IC50 [1]	IC50 [2]	Proliferation ratio (%) ([3]; Dosage 6.7 mg/kg intraperitoneally in corn oil)	Proliferation ratio (%) [3, 4]
CC(C)(C)c1ccc(CSc2cnn(C(C)(C)C)c(=O)c2Cl)cc1 [Compound 1, 2-t-butyl-4-chloro-5-(4-t-butyl)benzylthio-3(2H)pyridanzine]	16 nM	< 1.52 nM	56%	
CC(C)(C)OC(=O)Nc1cc(-c2ccc(CSc3cnn(C(C)(C)C)c(=O)c3Cl)cc2)ccn1 [Compound 90, 2-t-butyl-4-chloro-5-[4-[4-(2-t-butoxycarbonylamino)pyridyl]benzylthio]-3(2H)-pyridazinone]	270 nM	64 nM		

Source: patent EP0665223A1, “Antitumor agent, novel 3(2H)-pyridazinone derivatives and their preparation” (TAKEDA CHEMICAL INDUSTRIES, LTD., priority 1994, dated 1995)
